Laboratory results from ChEMBL document CHEMBL1129986, “Reliability of comparative molecular field analysis models: effects of data scaling and variable selection using a set of human synovial fluid phospholipase A2 inhibitors” (J Med Chem, 1997).

Target: T1, Phospholipase A2, membrane associated (Homo sapiens) (UniProt P14555)
T1 sequence (whole entry): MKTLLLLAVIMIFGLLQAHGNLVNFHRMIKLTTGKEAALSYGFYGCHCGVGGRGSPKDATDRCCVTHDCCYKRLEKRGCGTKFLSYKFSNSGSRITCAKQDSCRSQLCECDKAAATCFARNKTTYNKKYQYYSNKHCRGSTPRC
Test: Inhibitory activity against human synovial fluid phospholipase A2 (HSF-PLA2).
Set-up: concentration or dose not given beside the values
Details: concentration not given here

inhibition [%] | Compound
28 | CCCCCCCCCCC(=O)NC(CCCCCC)COP(=O)(O)OCCNCc1ccccc1 (stereo not given)
45 | CCCCCCCCCCS(=O)(=O)N[C@H](CCCCCC)COP(=O)(O)OCCO (stereo in doubt; form 2)
0 | CCCCCCCCCCS(=O)(=O)NC(CCCCCC)COP(=O)(O)OCCCC (stereo not given)
29 | CCCCCCCCCCS(=O)(=O)CC(CCCCCC)COP(=O)(O)OCCO (stereo not given)
40 | CCCCCCCCCCS(=O)(=O)N[C@@H](CCCCCC)COP(=O)(O)OCCO
0 | CCCCCCCCCCS(=O)(=O)NC(CCCCCC)COCC(F)(F)F (stereo not given)
36 | CCCCCCCCCCS(=O)(=O)NC(CCCCCC)COP(=O)(O)OCCO (stereo not given)
44 | CCCCCCCCCCS(=O)(=O)N[C@H](CCCCCC)COP(=O)(O)OCCO (stereo in doubt; form 1)
78 | CCCCCCCCCCS(=O)(=O)N[C@H](CCCCCC)COP(=O)(O)OCCOCc1ccccc1
65 | CCCCCCCCCCCC(=O)NC(CCCCCC)COP(=O)(O)OCCO (stereo not given)
